Converted amounts (≈) assume the structure as drawn.

A word on the IC50: it is the point on the concentration scale where inhibition reaches its midpoint. Higher therefore signals weaker potency in that assay.

Test [1] has as its system CHO. Description: Cytotoxicity against MDR1 gene transfected CHO cells. Type of test: ADME, cell-based, Cavia porcellus. The conditions noted are these: Cricetulus griseus.
The subject of test [2] is CHO. Description: Cytotoxicity against CHO cells. The test is classed as cell-based, Cavia porcellus. The conditions noted are these: Cricetulus griseus.
The test system of test [3] is P388. Kind of test: Cytotoxicity against mouse P388 cells. The test is classed as functional, cell-based.
Test [4] concerns L1210. Description: Cytotoxicity against mouse L1210 cells. The test is classed as functional, cell-based.
Test [5] relates to P388. Description: Cytotoxicity against mouse Adriamycin-resistant P388 cells. The test is classed as functional, cell-based.

Turning to `COc1cccc2c1C(=O)c1c(O)c3c(c(O)c1C2=O)C[C@@](O)(C(=O)CO)C[C@@H]3O[C@H]1C[C@H](N)[C@H](O)[C@H](C)O1` [DOXORUBICIN], the IC50 in test [1] came out at 0.11 mg/L (≈ 0.202 µM); in test [2] it was 0.01 mg/L (≈ 0.0184 µM); in test [3], 0.09 mg/L (≈ 0.166 µM); in test [4], 0.09 mg/L (≈ 0.166 µM); in test [5], 0.55 mg/L (≈ 1.01 µM).

Source of the values: ChEMBL document CHEMBL1146440, “Brasilidine A, a new cytotoxic isonitrile-containing indole alkaloid from the actinomycete Nocardia brasiliensis” (J Nat Prod, 1997).
